Reference: patent US6355799B1, “Substituted benzene compounds, process for their preparation, and herbicidal and defoliant compositions containing them” (ISK Americas Incorporated, priority 1997, dated 2002)
Blank lines part the entries; values can stand above or below the molecule they belong to.

Assays:
[1] = test system: lambsquarters (Chenopodium album, CHEAL); test: Pre-emerge test, greenhouse herbicide activity screening; format: in vivo; conditions: pre-emerge, 14 days after application, rating scale 0-100
Outline: (§1)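 Compounds in acetone were track-sprayed at 15-1000 g ai/ha (187 l/ha) on sandy loam pots: pre-emerge one day after seeding, post-emerge at 2-3 leaf stage with 0.25% v/v non-ionic surfactant. Phytotoxicity was rated 14 days later on a 0 (no damage) to 100 (complete death) scale.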

[2] = test system: ivyleaf morningglory (Ipomoea hederacea, IPOHE); test: as above; format: in vivo; conditions: pre-emerge, 14 days after application, rating scale 0-100
Outline: as §1

[3] = test system: large crabgrass (Digitaria sanguinalis, DIGSA); test: as above; format: in vivo; conditions: pre-emerge, 14 days after application, rating scale 0-100
Outline: as §1

[4] = test system: sicklepod (Cassia obtusifolia, CASOB); test: as above; format: in vivo; conditions: pre-emerge, 14 days after application, rating scale 0-100
Outline: as §1

[5] = test system: johnsongrass (Sorghum halepense, SORHA); test: as above; format: in vivo; conditions: pre-emerge, 14 days after application, rating scale 0-100
Outline: as §1

[6] = test system: barnyardgrass (Echinochloa crus-galli, ECHCG); test: as above; format: in vivo; conditions: pre-emerge, 14 days after application, rating scale 0-100
Outline: as §1

[7] = test system: green foxtail (Setaria viridis, SETVI); test: as above; format: in vivo; conditions: pre-emerge, 14 days after application, rating scale 0-100
Outline: as §1

[8] = test system: velvetleaf (Abutilon theophrasti, ABUTH); test: as above; format: in vivo; conditions: pre-emerge, 14 days after application, rating scale 0-100
Outline: as §1

[9] = test system: cocklebur (Xanthium strumarium, XANST); test: as above; format: in vivo; conditions: 14 days after application, rating scale 0-100
[10] = test system: field corn (Zea mays L., var. Dekalb 535, CORN); test: Pre-emerge test, crop safety; format: in vivo; conditions: pre-emerge, 14 days after application, rating scale 0-100
Outline: (§2)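 Sandy loam pots; pre-emerge: sown 1 d pre-spray, surface-watered after, then bottom-watered. Post-emerge: sown 8–21 d before, 2–3 leaf stage, + 0.25% v/v NIS, bottom-watered. Acetone, 187 l/ha track spray, 15–1000 g ai/ha. 0–100 injury score, day 14.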

[11] = test system: upland rice (Oryza sp., var. Tebonnet, RICE); test: Pre-emerge test, crop safety; format: in vivo; conditions: pre-emerge, 14 days after application, rating scale 0-100
Outline: as §2

[12] = test system: redroot pigweed (Amaranthus retroflexus, AMARE); test: Pre-emerge test, greenhouse herbicide activity screening; format: in vivo; conditions: pre-emerge, 14 days after application, rating scale 0-100
Outline: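 Rating: 0–100 visual injury, 14 DAA. Application: acetone, 187 l/ha, 15–1000 g ai/ha, flat-fan track sprayer with nozzle 40–45 cm above soil or canopy. Post-emerge runs used 0.25% v/v surfactant on 2–3 leaf plants.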

melting point: 156 to 157 °C
SMILES: COc1c(Cl)cc(F)c(-n2ncc(C(F)(F)F)cc2=O)c1N [Compound 11-4, 2-(2-amino-4-chloro-6-fluoro-3-methoxyphenyl)-5-trifluoromethylpyridazin-3-one]

SMILES: O=c1cc(C(F)(F)F)[nH]c(=O)n1-c1c(Cl)cc(C(F)(F)F)cc1Cl [compound 2, reference compound]
phytotoxicity rating CHEAL ([1]; 3.9 g ai/ha): 0
phytotoxicity rating CHEAL ([1]; 7.8 g ai/ha): 0
phytotoxicity rating CHEAL ([1]; 15.6 g ai/ha): 0
phytotoxicity rating CHEAL ([1]; 31.3 g ai/ha): 0
phytotoxicity rating CHEAL ([1]; 62.5 g ai/ha): 0
phytotoxicity rating CHEAL ([1]; 125 g ai/ha): 30
phytotoxicity rating CHEAL ([1]; 250 g ai/ha): 50
phytotoxicity rating IPOHE ([2]; 3.9 g ai/ha): 0
phytotoxicity rating IPOHE ([2]; 7.8 g ai/ha): 0
phytotoxicity rating IPOHE ([2]; 15.6 g ai/ha): 0
phytotoxicity rating IPOHE ([2]; 31.3 g ai/ha): 0
phytotoxicity rating IPOHE ([2]; 62.5 g ai/ha): 0
phytotoxicity rating IPOHE ([2]; 125 g ai/ha): 0
phytotoxicity rating IPOHE ([2]; 250 g ai/ha): 0
phytotoxicity rating DIGSA ([3]; 3.9 g ai/ha): 0
phytotoxicity rating DIGSA ([3]; 7.8 g ai/ha): 0
phytotoxicity rating DIGSA ([3]; 15.6 g ai/ha): 0
phytotoxicity rating DIGSA ([3]; 31.3 g ai/ha): 0
phytotoxicity rating DIGSA ([3]; 62.5 g ai/ha): 0
phytotoxicity rating DIGSA ([3]; 125 g ai/ha): 0
phytotoxicity rating DIGSA ([3]; 250 g ai/ha): 0
phytotoxicity rating CASOB ([4]; 3.9 g ai/ha): 0
phytotoxicity rating CASOB ([4]; 7.8 g ai/ha): 0
phytotoxicity rating CASOB ([4]; 15.6 g ai/ha): 0
phytotoxicity rating CASOB ([4]; 31.3 g ai/ha): 0
phytotoxicity rating CASOB ([4]; 62.5 g ai/ha): 0
phytotoxicity rating CASOB ([4]; 125 g ai/ha): 30
phytotoxicity rating CASOB ([4]; 250 g ai/ha): 50
phytotoxicity rating SORHA ([5]; 3.9 g ai/ha): 0
phytotoxicity rating SORHA ([5]; 7.8 g ai/ha): 0
phytotoxicity rating SORHA ([5]; 15.6 g ai/ha): 0
phytotoxicity rating SORHA ([5]; 31.3 g ai/ha): 0
phytotoxicity rating SORHA ([5]; 62.5 g ai/ha): 0
phytotoxicity rating SORHA ([5]; 125 g ai/ha): 0
phytotoxicity rating SORHA ([5]; 250 g ai/ha): 0
phytotoxicity rating ECHCG ([6]; 3.9 g ai/ha): 0
phytotoxicity rating ECHCG ([6]; 7.8 g ai/ha): 0
phytotoxicity rating ECHCG ([6]; 15.6 g ai/ha): 0
phytotoxicity rating ECHCG ([6]; 31.3 g ai/ha): 0
phytotoxicity rating ECHCG ([6]; 62.5 g ai/ha): 0
phytotoxicity rating ECHCG ([6]; 125 g ai/ha): 0
phytotoxicity rating ECHCG ([6]; 250 g ai/ha): 0
phytotoxicity rating SETVI ([7]; 3.9 g ai/ha): 0
phytotoxicity rating SETVI ([7]; 7.8 g ai/ha): 0
phytotoxicity rating SETVI ([7]; 15.6 g ai/ha): 0
phytotoxicity rating SETVI ([7]; 31.3 g ai/ha): 0
phytotoxicity rating SETVI ([7]; 62.5 g ai/ha): 0
phytotoxicity rating SETVI ([7]; 125 g ai/ha): 0
phytotoxicity rating SETVI ([7]; 250 g ai/ha): 0
phytotoxicity rating ABUTH ([8]; 3.9 g ai/ha): 0
phytotoxicity rating ABUTH ([8]; 7.8 g ai/ha): 0
phytotoxicity rating ABUTH ([8]; 15.6 g ai/ha): 0
phytotoxicity rating ABUTH ([8]; 31.3 g ai/ha): 0
phytotoxicity rating ABUTH ([8]; 62.5 g ai/ha): 0
phytotoxicity rating ABUTH ([8]; 125 g ai/ha): 0
phytotoxicity rating ABUTH ([8]; 250 g ai/ha): 50
phytotoxicity rating XANST ([9]; 3.9 g ai/ha): 0
phytotoxicity rating XANST ([9]; 7.8 g ai/ha): 0
phytotoxicity rating XANST ([9]; 15.6 g ai/ha): 0
phytotoxicity rating XANST ([9]; 31.3 g ai/ha): 0
phytotoxicity rating XANST ([9]; 62.5 g ai/ha): 0
phytotoxicity rating XANST ([9]; 125 g ai/ha): 0
phytotoxicity rating XANST ([9]; 250 g ai/ha): 60
phytotoxicity rating MAIZE ([10]; 3.9 g ai/ha): 0
phytotoxicity rating MAIZE ([10]; 7.8 g ai/ha): 0
phytotoxicity rating MAIZE ([10]; 15.6 g ai/ha): 0
phytotoxicity rating MAIZE ([10]; 31.3 g ai/ha): 0
phytotoxicity rating MAIZE ([10]; 62.5 g ai/ha): 0
phytotoxicity rating MAIZE ([10]; 125 g ai/ha): 0
phytotoxicity rating MAIZE ([10]; 250 g ai/ha): 0
phytotoxicity rating RICE ([11]; 3.9 g ai/ha): 0
phytotoxicity rating RICE ([11]; 7.8 g ai/ha): 0
phytotoxicity rating RICE ([11]; 15.6 g ai/ha): 0
phytotoxicity rating RICE ([11]; 31.3 g ai/ha): 0
phytotoxicity rating RICE ([11]; 62.5 g ai/ha): 0
phytotoxicity rating RICE ([11]; 125 g ai/ha): 0
phytotoxicity rating RICE ([11]; 250 g ai/ha): 15
phytotoxicity rating AMARE ([12]; 3.9 g ai/ha): 0
phytotoxicity rating AMARE ([12]; 7.8 g ai/ha): 0
phytotoxicity rating AMARE ([12]; 15.6 g ai/ha): 0
phytotoxicity rating AMARE ([12]; 31.3 g ai/ha): 0
phytotoxicity rating AMARE ([12]; 62.5 g ai/ha): 0
phytotoxicity rating AMARE ([12]; 125 g ai/ha): 0
phytotoxicity rating AMARE ([12]; 250 g ai/ha): 0
